In US20020193377A1, “Quinazolines as MMP-13 inhibitors” (priority 2001, published 2002):

system: not given; assay: not given; details: not given

| SMILES | melting point |
| --- | --- |
| COc1ccc(CNC(=O)c2ccc3c(c2)c(=O)n(Cc2ccc(C4(C(=O)O)CC4)cc2)c(=O)n3C)cc1 | 179 to 181 °C |
| COc1ccc(CNC(=O)c2ccc3c(c2)c(=O)n(Cc2ccc(C4(C(=O)OC(C)(C)C)CC4)cc2)c(=O)n3C)cc1 | 148 to 149 °C |
| Cn1c(=O)n(Cc2ccccc2)c(=O)c2cc(S(=O)(=O)Cc3ccccc3)ccc21 | 173 to 175 °C |
| COc1cccc(CNC(=O)c2ccc3c(c2)c(=O)n(Cc2ccc(Cl)cc2)c(=O)n3C)c1 | 178 to 180 °C |
| COc1ccc(CNC(=O)c2ccc3c(c2)c(=O)n(Cc2ccc(C(=O)OCCN(C)C)c(OC)c2)c(=O)n3C)cc1 | 130 °C |
| Cn1c(=O)n(Cc2ccccc2)c(=O)c2cc([S+]([O-])Cc3ccccc3)ccc21 (stereo not shown) | 182 to 183 °C |
| O=C(NCc1ccc2c(c1)OCO2)c1ccc2[nH]c(=O)n(Cc3ccc4c(c3)OCO4)c(=O)c2c1 [Example 28, 3-(Benzo[1,3]dioxol-5-ylmethyl)-2,4-dioxo-1,2,3,4-tetrahydroquinazoline-6-carboxylic acid (benzo[1,3]dioxol-5-ylmethyl)amide] | 245.2 °C |
| COc1ccc(CNC(=O)c2ccc3c(c2)c(=O)n(Cc2ccc(-c4noc(=O)[nH]4)cc2)c(=O)n3C)cc1 | 305 °C |
| Cn1c(=O)n(Cc2ccccc2)c(=O)c2cc(SCc3ccccc3)ccc21 | 117 to 118 °C |

The next lines start with the values.

| melting point | SMILES |
| --- | --- |
| 147 °C | Cn1c(=O)n(Cc2ccccc2)c(=O)c2cc(C(=O)OC/C=C/c3ccncc3)ccc21 |
| 173 to 175 °C | Cn1c(=O)n(Cc2ccc(Cl)cc2)c(=O)c2cc(C(=O)NCc3cccnc3)ccc21 |
| 166 to 168 °C | Cn1c(=O)n(Cc2ccc(F)cc2)c(=O)c2cc(C(=O)NCc3cccnc3)ccc21 |
| 184 °C | Cn1c(=O)n(Cc2ccccc2)c(=O)c2cc(C(=O)OC/C=C/c3cccnc3)ccc21 |
| 174 to 175 °C | COc1cc(CNC(=O)c2ccc3c(c2)c(=O)n(Cc2ccc(F)cc2)c(=O)n3C)ccn1 |

target: T1, human collagenase-3 catalytic domain enzyme (MMP13) (Homo sapiens, UniProt P45452); assay: MMP13CD Thiopeptolide Assay; type: biochemical; details: not given
T1 construct: human collagenase-3 catalytic domain enzyme
Procedure: MMP13CD Thiopeptolide Assay: Proteolysis of the thiopeptolide substrate Ac-Pro-Leu-Gly-thioester-Leu-Leu-Gly-OEt is used as the primary screen to determine IC50 values for MMP13 inhibitors. A 100 μl reaction contains 50 mM HEPES, 10 mM CaCl2, pH 7.0 (RT), 1 mM 5,5′-dithiobis(2-nitrobenzoic acid) (DTNB), 100 μM substrate, inhibitor in 2.0% DMSO and 2.5 nM human collagenase-3 catalytic domain enzyme. Inhibitors are screened from 100 μM to 0.5 nM. […] Percentage of control velocity in inhibited treatments is plotted against inhibitor concentration to calculate IC50 values.

| SMILES | IC50 |
| --- | --- |
| O=C(NCc1ccc2c(c1)OCO2)c1ccc2[nH]c(=O)n(Cc3ccc4c(c3)OCO4)c(=O)c2c1 [Example 28, 3-(Benzo[1,3]dioxol-5-ylmethyl)-2,4-dioxo-1,2,3,4-tetrahydroquinazoline-6-carboxylic acid (benzo[1,3]dioxol-5-ylmethyl)amide] | 9 nM |
| Cn1c(=O)n(Cc2ccc(Cl)cc2)c(=O)c2cc(C(=O)NCc3ccc4c(c3)OCO4)ccc21 [Example 26, 3-(4Chlorobenzyl)-1-methyl-2,4-dioxo-1,2,3,4-tetrahydroquinazoline-6-carboxylic acid (benzo[1,3]dioxol-5-ylmethyl)amide] | 96 nM |
| Cn1c(=O)n(Cc2ccccc2)c(=O)c2cc(C(=O)OCc3ccc4c(c3)OCO4)ccc21 [Example 42, Benzo[1,3]dioxol-5-ylmethyl3-benzyl-1-methyl-2,4-dioxo-1,2,3,4-tetrahydroquinazoline-6-carboxylate] | 31 nM |
| O=C(OCc1ccncc1)c1ccc2[nH]c(=O)n(Cc3ccc4c(c3)OCO4)c(=O)c2c1 [Example 45, 4-Pyridylmethyl3-(benzo[1,3]dioxol-5-ylmethyl)-2,4-dioxo-1,2,3,4-tetrahydroquinazoline6-carboxylate] | 7 nM |
| CC(C)Cn1c(=O)n(Cc2ccccc2)c(=O)c2cc(C(=O)NCc3ccc4c(c3)OCO4)ccc21 [Example 32, 3-Benzyl-1-isobutyl-2,4-dioxo-1,2,3,4-tetrahydroquinazoline-6-carboxylic acid (benzo[1,3]dioxol-5-ylmethyl)amide] | 17 nM |
| COc1ccc(CNC(=O)c2ccc3[nH]c(=O)n(Cc4ccccc4)c(=O)c3c2)cc1 [Example 6, 3-Benzyl-2,4-dioxo-1,2,3,4-tetrahydroquinazoline-6-carboxylic acid 4-methoxybenzylamide] | 183 nM |

Further lines, results first:

| IC50 | SMILES |
| --- | --- |
| 366 nM | Cn1c(=O)n(Cc2ccccc2)c(=O)c2cc(C(=O)NCc3ccc4c(c3)OCO4)ccc21 [Example 9, 3-Benzyl-1-methyl-2,4-dioxo-1,2,3,4-tetrahydroquinazoline-6-carboxylic acid (benzo[1,3]dioxol-5-ylmethyl)amide] |
| 57 nM | Cn1c(=O)n(Cc2ccccc2)c(=O)c2cc(C(=O)NCc3ccncc3)ccc21 [Example 14, 3-Benzyl-1-methyl-2,4-dioxo-1,2,3,4-tetrahydroquinazoline-6-carboxylic acid (4-pyridylmethyl)amide] |
| 1320 nM | COc1cc(CNC(=O)c2ccc3c(c2)c(=O)n(Cc2ccccc2)c(=O)n3C)ccc1O [Example 12, 3-Benzy-1-methyl-2,4-dioxo-1,3,3,4-tetrahydroquinazoline-6-carboxylic acid 4-hydroxy-3-methoxybenzylamide] |

system: MMP-1, MMP-2, MMP-3, MMP-9 and MMP-13; assay: not given; details: prior art, non-selective inhibitors; cited from earlier work

| SMILES | inhibition of several MMPs (in words) |
| --- | --- |
| CC1(C)SCCN(S(=O)(=O)c2ccc(Oc3ccncc3)cc2)[C@H]1C(=O)NO [AG-3340] | inhibit both MMP-1, MMP-2, MMP-3, MMP-9 and MMP-13 |
| COc1ccc(S(=O)(=O)N(Cc2cccnc2)[C@@H](C(=O)NO)C(C)C)cc1 [CGS-27.023A] | inhibit both MMP-1, MMP-2, MMP-3, MMP-9 and MMP-13 |
